Source: patent US9314485B2, “Use of PI3K M-TOR and AKT inhibitors to induce FOXP3 expression and generate regulatory T cells” (Medical Research Council, priority 2006, dated 2016)

Legend:
PI4KIIIα = PI4KIIIα (Homo sapiens, UniProt P42356); conditions: unit inferred; read-out: Specificity for PI4KIIIα (IC50 determined in vitro); cited from earlier work
PI3KC2γ = PI3KC2γ (Homo sapiens, UniProt O75747); conditions: unit inferred; read-out: Specificity for PI3KC2γ (IC50 determined in vitro); cited from earlier work
mTORC2 = mTORC2 (Homo sapiens, UniProt P42345); conditions: unit inferred; read-out: Specificity for mTORC2 (IC50 determined in vitro); cited from earlier work
PI4P5KIα [1] = conditions: second PI4P5KIα line; unit inferred; read-out: Specificity for PI4P5KIα (IC50 determined in vitro); cited from earlier work
[2] = system: naive CD62LhiCD4+CD25− LN T cells; assay: Foxp3 induction in newly activated naive CD4 T cells (intracellular staining); assay type: cell-based, mouse; conditions: for number of cell divisions (CFSE): 24-48 hours after addition at 18 hours; for % Foxp3+ cells, activation with anti-TCR only: no costimulation; for % Foxp3+ cells, activation with anti-TCR only / % Foxp3+ cells, activation with anti-TCR + anti-CD28: average of two experiments; for % Foxp3+ cells, activation with anti-TCR + anti-CD28: with costimulation
Experimental: Mouse strains, cell sorting and culture Animal work was carried out according the Animals (Scientific Procedures) Act, UK. Lymph node (LN) cells were stained, analysed and sorted by flow cytometry as described (Cobb et al 2005 J. Exp. Med. 201: 1367-1373). Intracellular staining for Foxp3 protein was done as advised by the manufacturers (eBiosciences.com). The phosphorylation syatus of S6 ribosomal protein was determined using anti pS6 Ser235/236 (Cellsignaling cat.no. 2211, http://www.cellsignal.com) using the eBioscience Foxp3 staining kit and anti rabbit IgG-FITC or IgG-Cy5 (Jackson Immunoresearch). For induction of Foxp3 expression, sorted LN CD4+ CD25− CD62Lhi T cells were cultured at 1-3×10^6/ml with plate bound anti-TCRβ. […] After 18 hours the cells were either left in place for continued TCR stimulation or moved to uncoated wells with the indicated additives. To assess regulatory function, CD4 T cells cultured as indicated were titrated into round bottom wells containing either 1×10^5 CFSE labeled total LN cells or 5×10^4 CFSE labeled CD4^+ CD25^− T cells and 1×10^5 mitomycin-C treated (25 μg/ml, 20 min, 37° C.) T cell depleted splenocytes with the indicated concentrations of anti CD3 (2C11, Pharmingen). CD4 T cell CFSE profiles were recorded between 48 and 72 hours later.
Mice, Cell Sorting and Culture. Animal work was carried out according to the Animals (Scientific Procedures) Act, UK. Lymph node (LN) cells or thymocytes from wild type were stained, analysed and sorted by flow cytometry as described (Thompson et al., 2007 Immunity VoI 26 pp 335-344) from wild type (C57BL/6, BALB/c or C57BL/6×129) mice or from Rag1 deficient H2^b AND TCR transgenic mice. Antigen presenting cells were derived from bone marrow in the presence of GM-CSF and incubated with antigenic peptide. Intracellular staining for Foxp3 protein was done as advised by the manufacturers (eBiosciences.com). The phosphorylation status of S6 ribosomal protein was determined using anti pS6 Ser235/236 (Cell Signaling cat.no. 2211, http://www.cellsignal.com) using the eBioscience Foxp3 staining kit and anti rabbit IgG-FITC or IgG-Cy5 (Jackson ImmunoResearch). […] After 18 hours the cells were either left in place for continued TCR stimulation or moved to uncoated wells with the indicated additives. To assess regulatory function, CD4 T cells cultured as indicated were titrated into round bottom wells containing either 1×10^5 CFSE labeled total LN cells or 5×10^4 CFSE labeled CD4^+CD25^− T cells and 1×10^5 mitomycin-C treated (25 μg/ml, 20 min, 37° C.) T cell depleted splenocytes with the indicated concentrations of anti CD3 (2C11, Pharmingen). CD4 T cell CFSE profiles were recorded between 48 and 72 hours later.

PI3KC2α = PI3KC2α (Homo sapiens, UniProt O00443); conditions: unit inferred; read-out: Specificity for PI3KC2α (IC50 determined in vitro); cited from earlier work
mTORC1 = mTORC1 (Homo sapiens, UniProt P42345); conditions: unit inferred; read-out: Specificity for mTORC1 (IC50 determined in vitro); cited from earlier work
DNA-PK = DNA-PK (Homo sapiens, UniProt P78527); conditions: unit inferred; read-out: Specificity for DNA-PK (IC50 determined in vitro); cited from earlier work
PI4KIIIβ = PI4KIIIβ (Homo sapiens, UniProt Q9UBF8); conditions: unit inferred; read-out: Specificity for PI4KIIIβ (IC50 determined in vitro); cited from earlier work
PI5P4KIIβ = target: T1, PI5P4KIIβ (Homo sapiens, UniProt P78356); conditions: unit inferred; read-out: Specificity for PI5P4KIIβ (IC50 determined in vitro); cited from earlier work
T1 sequence (P78356 1-416): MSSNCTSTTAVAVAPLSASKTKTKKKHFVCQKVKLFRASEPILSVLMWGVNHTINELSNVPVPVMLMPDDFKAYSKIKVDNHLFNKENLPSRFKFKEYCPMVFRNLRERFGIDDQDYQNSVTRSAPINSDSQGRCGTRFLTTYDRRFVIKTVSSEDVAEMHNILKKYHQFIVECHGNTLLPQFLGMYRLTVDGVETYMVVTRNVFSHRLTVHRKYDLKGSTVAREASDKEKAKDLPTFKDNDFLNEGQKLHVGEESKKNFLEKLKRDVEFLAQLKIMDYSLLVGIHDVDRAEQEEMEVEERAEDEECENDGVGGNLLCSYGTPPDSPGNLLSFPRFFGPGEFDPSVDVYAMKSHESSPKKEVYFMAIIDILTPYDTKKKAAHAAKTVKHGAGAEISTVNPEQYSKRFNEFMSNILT

PI3KC2β = PI3KC2β (Homo sapiens, UniProt O00750); conditions: unit inferred; read-out: Specificity for PI3KC2β (IC50 determined in vitro); cited from earlier work
ATR = ATR (Homo sapiens, UniProt Q13535); conditions: unit inferred; read-out: Specificity for ATR (IC50 determined in vitro); cited from earlier work
hsVPS34 = hsVPS34 (Homo sapiens, UniProt Q8NEB9); conditions: unit inferred; read-out: Specificity for hsVPS34 (IC50 determined in vitro); cited from earlier work
PI4P5KIα [3] = target: PI4P5KIα (Homo sapiens, UniProt Q99755); conditions: first PI4P5KIα line; unit inferred; read-out: Specificity for PI4P5KIα (IC50 determined in vitro); cited from earlier work
PI4KIIα = PI4KIIα (Homo sapiens, UniProt Q9BTU6); conditions: unit inferred; read-out: Specificity for PI4KIIα (IC50 determined in vitro); cited from earlier work
ATM = ATM (Homo sapiens, UniProt Q13315); conditions: unit inferred; read-out: Specificity for ATM (IC50 determined in vitro); cited from earlier work
S6 ribosomal protein = S6 ribosomal protein phosphorylation (pS6) by intracellular staining/immunoblot; assay type: cell-based, mouse; conditions: 18 h activated cells; rapamycin 25 nM, Ly294002 10 g/ml as printed; within one hour
Experimental: Mouse strains, cell sorting and culture Animal work was carried out according the Animals (Scientific Procedures) Act, UK. Lymph node (LN) cells were stained, analysed and sorted by flow cytometry as described (Cobb et al 2005 J. Exp. Med. 201: 1367-1373). Intracellular staining for Foxp3 protein was done as advised by the manufacturers (eBiosciences.com). The phosphorylation syatus of S6 ribosomal protein was determined using anti pS6 Ser235/236 (Cellsignaling cat.no. 2211, http://www.cellsignal.com) using the eBioscience Foxp3 staining kit and anti rabbit IgG-FITC or IgG-Cy5 (Jackson Immunoresearch). […] CD4 T cell CFSE profiles were recorded between 48 and 72 hours later.
To monitor the activity of the PI3K/mTOR axis in response to TCR signaling, TCR signal withdrawal and treatment with rapamycin and Ly294002, we analysed the level of phosphorylated S6 ribosomal protein (pS6), the target of p70 S6 kinase, which is directly regulated by mTOR. […]
Mice, Cell Sorting and Culture. […] Lymph node (LN) cells or thymocytes from wild type were stained, analysed and sorted by flow cytometry as described (Thompson et al., 2007 Immunity VoI 26 pp 335-344) from wild type (C57BL/6, BALB/c or C57BL/6×129) mice or from Rag1 deficient H2^b AND TCR transgenic mice. […] CD4 T cell CFSE profiles were recorded between 48 and 72 hours later.

Chain of PI3KC2α (O00443 whole entry, species assumed): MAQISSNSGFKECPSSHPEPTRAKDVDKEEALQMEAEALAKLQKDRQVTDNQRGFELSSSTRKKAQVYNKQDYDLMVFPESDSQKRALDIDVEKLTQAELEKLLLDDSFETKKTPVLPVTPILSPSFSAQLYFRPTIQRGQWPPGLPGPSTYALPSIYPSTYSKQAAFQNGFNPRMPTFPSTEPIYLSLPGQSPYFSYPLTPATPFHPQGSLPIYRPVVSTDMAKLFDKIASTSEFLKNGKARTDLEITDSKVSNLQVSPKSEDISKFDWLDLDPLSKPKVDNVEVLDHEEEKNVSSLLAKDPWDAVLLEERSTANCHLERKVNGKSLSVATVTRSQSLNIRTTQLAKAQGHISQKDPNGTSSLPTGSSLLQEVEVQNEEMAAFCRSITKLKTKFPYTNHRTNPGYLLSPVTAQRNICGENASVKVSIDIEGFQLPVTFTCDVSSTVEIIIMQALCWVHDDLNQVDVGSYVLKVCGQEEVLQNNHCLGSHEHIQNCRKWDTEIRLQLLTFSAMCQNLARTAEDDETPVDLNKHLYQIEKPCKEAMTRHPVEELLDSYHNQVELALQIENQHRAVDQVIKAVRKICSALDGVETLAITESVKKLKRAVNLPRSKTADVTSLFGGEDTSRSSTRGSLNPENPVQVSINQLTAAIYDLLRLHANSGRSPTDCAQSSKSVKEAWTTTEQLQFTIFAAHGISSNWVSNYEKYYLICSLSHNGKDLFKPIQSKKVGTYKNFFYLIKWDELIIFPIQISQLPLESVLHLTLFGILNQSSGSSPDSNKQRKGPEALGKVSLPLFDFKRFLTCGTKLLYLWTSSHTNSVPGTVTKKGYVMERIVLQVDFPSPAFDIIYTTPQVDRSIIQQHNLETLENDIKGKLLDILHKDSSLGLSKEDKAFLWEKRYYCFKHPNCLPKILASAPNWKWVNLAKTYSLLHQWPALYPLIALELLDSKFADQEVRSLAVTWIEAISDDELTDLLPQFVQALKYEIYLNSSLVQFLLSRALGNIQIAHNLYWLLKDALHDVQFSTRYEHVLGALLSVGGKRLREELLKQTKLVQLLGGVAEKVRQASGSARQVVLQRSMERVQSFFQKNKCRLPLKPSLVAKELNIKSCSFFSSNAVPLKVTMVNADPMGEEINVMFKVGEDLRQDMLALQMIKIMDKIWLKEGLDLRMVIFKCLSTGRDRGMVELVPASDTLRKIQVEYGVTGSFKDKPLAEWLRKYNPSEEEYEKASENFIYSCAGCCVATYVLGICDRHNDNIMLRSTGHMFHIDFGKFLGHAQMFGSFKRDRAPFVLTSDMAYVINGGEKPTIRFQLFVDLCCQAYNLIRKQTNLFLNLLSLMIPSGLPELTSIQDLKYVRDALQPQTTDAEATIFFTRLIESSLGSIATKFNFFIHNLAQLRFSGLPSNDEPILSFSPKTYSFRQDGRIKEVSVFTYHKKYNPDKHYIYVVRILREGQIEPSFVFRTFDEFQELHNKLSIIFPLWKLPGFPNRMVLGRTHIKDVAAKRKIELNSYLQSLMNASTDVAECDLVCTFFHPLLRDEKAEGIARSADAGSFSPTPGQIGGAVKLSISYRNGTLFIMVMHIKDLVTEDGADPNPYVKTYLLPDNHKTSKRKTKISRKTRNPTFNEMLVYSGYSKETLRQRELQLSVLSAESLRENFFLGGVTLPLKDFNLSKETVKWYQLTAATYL
Chain of PI3KC2γ (O75747 whole entry, species assumed): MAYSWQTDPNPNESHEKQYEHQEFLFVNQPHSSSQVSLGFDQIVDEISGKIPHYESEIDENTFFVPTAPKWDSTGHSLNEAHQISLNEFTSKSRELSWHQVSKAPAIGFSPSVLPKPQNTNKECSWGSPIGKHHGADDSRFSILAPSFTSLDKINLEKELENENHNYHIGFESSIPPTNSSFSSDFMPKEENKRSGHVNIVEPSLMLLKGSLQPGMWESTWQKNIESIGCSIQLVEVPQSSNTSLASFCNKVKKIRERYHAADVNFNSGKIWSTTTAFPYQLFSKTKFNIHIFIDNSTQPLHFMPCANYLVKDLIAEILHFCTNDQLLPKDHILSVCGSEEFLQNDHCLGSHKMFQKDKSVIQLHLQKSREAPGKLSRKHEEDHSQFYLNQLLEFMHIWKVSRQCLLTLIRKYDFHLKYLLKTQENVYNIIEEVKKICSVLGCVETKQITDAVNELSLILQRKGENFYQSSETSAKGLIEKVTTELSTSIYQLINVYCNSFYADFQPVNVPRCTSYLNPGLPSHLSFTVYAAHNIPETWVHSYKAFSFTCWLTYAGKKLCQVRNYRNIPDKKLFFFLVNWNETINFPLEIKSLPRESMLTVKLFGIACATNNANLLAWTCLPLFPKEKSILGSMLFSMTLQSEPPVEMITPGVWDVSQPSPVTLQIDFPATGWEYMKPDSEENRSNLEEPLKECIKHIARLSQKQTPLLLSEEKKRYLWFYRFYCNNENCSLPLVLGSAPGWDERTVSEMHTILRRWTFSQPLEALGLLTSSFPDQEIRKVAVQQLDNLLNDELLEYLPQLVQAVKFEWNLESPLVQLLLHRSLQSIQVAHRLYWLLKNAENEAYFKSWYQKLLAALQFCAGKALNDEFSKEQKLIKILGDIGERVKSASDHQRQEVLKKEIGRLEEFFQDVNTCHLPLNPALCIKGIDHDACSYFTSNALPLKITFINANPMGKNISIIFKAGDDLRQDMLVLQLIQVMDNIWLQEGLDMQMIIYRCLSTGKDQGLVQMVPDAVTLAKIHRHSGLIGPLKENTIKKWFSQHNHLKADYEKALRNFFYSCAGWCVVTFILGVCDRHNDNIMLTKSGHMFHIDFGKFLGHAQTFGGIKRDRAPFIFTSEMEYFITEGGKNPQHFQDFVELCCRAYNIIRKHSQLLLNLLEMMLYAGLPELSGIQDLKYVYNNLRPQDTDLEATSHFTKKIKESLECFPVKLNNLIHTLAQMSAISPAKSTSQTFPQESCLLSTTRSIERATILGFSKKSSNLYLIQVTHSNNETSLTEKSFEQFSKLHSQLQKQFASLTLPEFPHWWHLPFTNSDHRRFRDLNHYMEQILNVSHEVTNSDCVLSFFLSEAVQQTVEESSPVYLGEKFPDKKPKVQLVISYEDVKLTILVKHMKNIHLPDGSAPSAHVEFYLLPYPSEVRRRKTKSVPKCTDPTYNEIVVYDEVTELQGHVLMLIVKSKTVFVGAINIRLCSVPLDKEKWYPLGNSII
Chain of PI4P5KIα (Homo sapiens, UniProt Q99755) (Q99755 whole entry): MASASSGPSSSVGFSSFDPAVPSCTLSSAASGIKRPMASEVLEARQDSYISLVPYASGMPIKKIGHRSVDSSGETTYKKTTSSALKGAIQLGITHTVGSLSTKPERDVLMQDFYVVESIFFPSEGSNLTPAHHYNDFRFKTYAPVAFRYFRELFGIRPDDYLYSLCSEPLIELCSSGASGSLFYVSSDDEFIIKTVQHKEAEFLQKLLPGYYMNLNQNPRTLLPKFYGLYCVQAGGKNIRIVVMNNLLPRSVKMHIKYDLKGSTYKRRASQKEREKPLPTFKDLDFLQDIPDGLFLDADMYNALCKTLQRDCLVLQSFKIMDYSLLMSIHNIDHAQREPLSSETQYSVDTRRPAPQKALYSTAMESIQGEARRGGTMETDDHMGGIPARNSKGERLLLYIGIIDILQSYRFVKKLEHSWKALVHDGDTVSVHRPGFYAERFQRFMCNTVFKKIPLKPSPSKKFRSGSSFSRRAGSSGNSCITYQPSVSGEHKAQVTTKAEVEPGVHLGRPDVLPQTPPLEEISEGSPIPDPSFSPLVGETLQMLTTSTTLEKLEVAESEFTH
Chain of PI4KIIIβ (Q9UBF8 whole entry): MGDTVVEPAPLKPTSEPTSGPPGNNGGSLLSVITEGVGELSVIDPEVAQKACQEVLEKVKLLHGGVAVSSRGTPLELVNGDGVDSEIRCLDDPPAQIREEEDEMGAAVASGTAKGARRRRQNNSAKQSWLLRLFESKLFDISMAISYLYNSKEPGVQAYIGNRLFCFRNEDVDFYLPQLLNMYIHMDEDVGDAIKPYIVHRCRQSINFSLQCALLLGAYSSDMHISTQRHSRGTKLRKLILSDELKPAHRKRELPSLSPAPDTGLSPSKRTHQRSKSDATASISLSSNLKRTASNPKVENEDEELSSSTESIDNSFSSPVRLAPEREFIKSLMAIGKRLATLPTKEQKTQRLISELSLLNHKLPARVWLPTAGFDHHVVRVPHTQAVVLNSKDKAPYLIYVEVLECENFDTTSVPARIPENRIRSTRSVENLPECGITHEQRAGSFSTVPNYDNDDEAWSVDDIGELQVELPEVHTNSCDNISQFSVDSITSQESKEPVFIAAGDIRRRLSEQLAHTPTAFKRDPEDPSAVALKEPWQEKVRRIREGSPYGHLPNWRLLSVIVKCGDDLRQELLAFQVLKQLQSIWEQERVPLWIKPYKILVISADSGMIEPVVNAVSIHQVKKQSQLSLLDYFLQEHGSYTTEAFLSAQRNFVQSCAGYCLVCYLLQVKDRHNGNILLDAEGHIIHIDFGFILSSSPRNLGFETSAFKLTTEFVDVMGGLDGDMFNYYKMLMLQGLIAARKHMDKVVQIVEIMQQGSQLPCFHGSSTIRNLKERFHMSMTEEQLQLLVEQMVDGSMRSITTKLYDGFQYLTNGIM
Chain of PI4KIIα (Q9BTU6 whole entry): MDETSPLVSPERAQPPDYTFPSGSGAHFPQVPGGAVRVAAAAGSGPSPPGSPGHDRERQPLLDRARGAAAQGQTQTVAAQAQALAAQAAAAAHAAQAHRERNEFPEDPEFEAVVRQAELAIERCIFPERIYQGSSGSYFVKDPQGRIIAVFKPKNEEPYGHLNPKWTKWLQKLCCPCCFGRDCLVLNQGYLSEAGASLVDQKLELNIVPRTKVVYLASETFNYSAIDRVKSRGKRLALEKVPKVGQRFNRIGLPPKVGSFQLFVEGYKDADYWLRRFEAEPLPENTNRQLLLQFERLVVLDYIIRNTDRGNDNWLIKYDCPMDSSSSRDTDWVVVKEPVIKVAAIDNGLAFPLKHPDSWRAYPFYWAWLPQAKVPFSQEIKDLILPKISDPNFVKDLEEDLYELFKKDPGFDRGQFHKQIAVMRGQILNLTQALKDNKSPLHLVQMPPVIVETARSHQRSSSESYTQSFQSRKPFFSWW

For `Cc1ccccc1-n1c(Cn2cnc3c(N)ncnc32)nc2cccc(C)c2c1=O` [IC87114], the IC50 (PI4KIIIα) is listed as over 100 µM, the IC50 (PI3KC2γ) is listed as over 100 µM and the IC50 (mTORC2) is listed as over 100 µM. For the same compound, the IC50 (PI4P5KIα [1]) was over 100 µM, the “Foxp3 induction at 1 μM” value ([2]; 1 μM) was 15% and the “increase in Foxp3 expressing cells over and above TCR deprivation alone” value ([2]; IC-87114 down to 0.01 μM) was 10-15%. For the same compound, the IC50 (PI3KC2α) was over 100 µM, the IC50 (mTORC1) was over 100 µM and the IC50 (DNA-PK) was over 100 µM. For the same compound, the IC50 (PI4KIIIβ) was over 100 µM, the IC50 (PI5P4KIIβ) was over 100 µM and the IC50 (PI3KC2β) was over 100 µM. The IC50 (ATR) was over 100 µM, the IC50 (hsVPS34) was over 100 µM and the IC50 (PI4P5KIα [3]) was over 100 µM. For the same compound, the IC50 (PI4KIIα) was over 100 µM and the IC50 (ATM) was over 100 µM.

With `O=c1cc(N2CCOCC2)oc2c(-c3ccccc3)cccc12` [Ly294002, 2-(4-Morpholinyl)-8-phenyl-4H-1-benzopyran-4-one] the “number of cell divisions (CFSE)” value [2] was “slight reduction”, the “number of cell divisions (CFSE)” value ([2]; listed as LY294002) was “slightly reduced” and the “percentage of cells expressing Foxp3” value ([2]; added 18 hours after activation with TCR signal deprivation, read within 24-48 hours) was 26.9±11.4%. For the same compound, the “% Foxp3+ cells, activation with anti-TCR only” value [2] was 4%, the “% Foxp3+ cells, activation with anti-TCR only” value ([2]; listed as LY294002) was 4% Foxp3^+ and the “Foxp3 expression in control cultures, TCR signal deprived cultures subtracted” value ([2]; serum free AIM-V medium, without anti TGFβ and SB431542, 24-48 hours / 2 days) was 21.5±4.0%. The “% Foxp3+ cells, activation with anti-TCR + anti-CD28” value [2] was 44%, the “% Foxp3+ cells, activation with anti-TCR + anti-CD28” value ([2]; listed as LY294002) was 44% Foxp3^+ and the “S6 phosphorylation (pS6)” value (S6 ribosomal protein) was “completely removed”.
